{
  "source": "patent US12459914B2",
  "about": "“Compounds and compositions for the treatment of tumors” (FONDAZIONE ISTITUTO ITALIANO DI TECNOLOGIA, priority 2019, dated 2025)",
  "assay": "Pharmacokinetic studies in mice, plasma levels by LC/MS-MS",
  "type": "in vivo, C57B6/J mice",
  "details": "for half-life: read-out: t1/2 (calc)",
  "experimental": "Male C57B6/J mice, 8 weeks old were used (Charles River). All procedures were performed in accordance with the Ethical Guidelines of European Communities Council (Directive 2010/63/EU of 22 Sep. 2010) and accepted by the Italian Ministry of Health. All efforts were made to minimize animal suffering and to use the minimal number of animals required to produce reliable results, according to the “3Rs concept”. Animals were group-housed in ventilated cages and had free access to food and water. They were maintained under a 12-hour light/dark cycle (lights on at 8:00 am) at controlled temperature (21° C.±1° C.) and relative humidity (55%±10%).\nCompound d.12 was administered orally (PO), intraperitoneally (IP) and intravenously (IV) to C57B6/J male mice at 2 mg/kg/10 ml, 20 mg/kg/10 ml and 2 mg/kg/5 ml, respectively. Vehicle was composed by PEG400/Tween 80/Saline solution at 10/10/80% in volume, respectively for PO and IV administration. For IP administration, the same vehicle was used with the addition of 10% DMSO in final volume. Three animals per dose were treated. Blood samples at 0, 15, 30, 60, 120, 240, and 480 min after administration were collected for PO and IP arms. Blood samples at 0, 5, 15, 30, 60, 120 and 240 min after administration were collected for IV arm. Plasma was separated from blood by centrifugation for 15 min at 1500 rpm a 4° C., collected in a eppendorf tube and frozen (−80° C.). Control animals treated with vehicle only were also included in the experimental protocol.\nPlasma samples were centrifuged at 21.100×g for 15 min at 4° C. An aliquot of each plasma sample was extracted (1:3) with cold CH3CN containing 200 nM of d.48 as internal standard being a close analogue of the parent compound. A calibration curve was prepared in naïve mouse plasma over a 1 nM-10 μM range. Three quality control samples were prepared by spiking the parent compound in naïve mouse plasma to 20, 200 and 2000 nM as final concentrations. The calibrators and quality control samples were extracted (1:3) with the same extraction solution as the plasma samples. The plasma samples, calibrators and quality control samples were centrifuged at 3.270×g for 15 min at 4° C. The supernatants were further diluted (1:1) with H2O, and analyzed by LC/MS-MS on a Waters ACQUITY UPLC/MS TQD system consisting of a Triple Quadrupole Detector (TQD) Mass Spectrometer equipped with an Electrospray Ionization interface and a Photodiode Array e, Detector from Waters Inc. (Milford, MA, USA). Electrospray ionization was applied in positive mode. Compound-dependent parameters as MRM transitions and collision energy were developed for the parent compound and the internal standard. The analyses were run on an ACQUITY UPLC BEH C18 (50×2.1 mmID, particle size 1.7 μm) with a VanGuard BEH C18 pre-column (5×2.1 mmID, particle size 1.7 μm) at 40° C., using H2O+0.1% HCOOH (A) and CH3CN+0.1% HCOOH (B) as mobile phase at 0.5 mL/min. A linear gradient was applied starting at 40% B with an initial hold for 0.2 min, then 40-100% B in 2 min, followed by a hold for 0.1 min at 100% B. All samples (plasma samples, calibrators and quality controls) were quantified by MRM peak area response factor in order to determine the levels of the parent compound in plasma. The plasma concentrations versus time were plotted and the profiles were fitted using PK Solutions Excel Application (Summit Research Service, USA) in order to determine the pharmacokinetic parameters. The results are reported in Tables 2 and 3 and in FIGS. 1, 2 and 3.",
  "key": {"[1]": {"details": "male, C57B6/J, mouse, plasma, mice, IP 20 mg/kg"}, "[2]": {"details": "male, C57B6/J, mouse, plasma, mice, IV 2 mg/kg"}, "[3]": {"details": "male, C57B6/J, mouse, plasma, mice, PO 2 mg/kg"}, "[4]": {"details": "male, C57B6/J, mouse plasma, IV 2 mg/kg, read-out: Average conc."}, "[5]": {"details": "male, C57B6/J, mouse plasma, PO 2 mg/kg, read-out: Average conc."}},
  "note": "Where two headings read alike, the source gives them in different places.",
  "data": [
    {"smiles": "CCC(=O)N1N=C(c2c(-c3ccccc3)c3cc(Cl)ccc3[nH]c2=O)CC1c1ccc(OC)cc1", "note": "(centres unmarked) [d.12, 6-chloro-3-[3-(4-methoxyphenyl)-2-propanoyl-3,4-dihydropyrazol-5-yl]-4-phenyl-1H-quinolin-2-one]", "values": [
      {"measurement": "AUC", "setting": "[1]", "result": 9280, "unit": "ng·h/mL"},
      {"measurement": "Cmax", "setting": "[1]", "result": 5300, "unit": "ng/mL"},
      {"measurement": "Tmax", "setting": "[1]", "result": 30, "unit": "min"},
      {"measurement": "half-life", "setting": "[1]", "result": 175, "unit": "min"},
      {"measurement": "AUC", "setting": "[2]", "result": 899, "unit": "ng·h/mL"},
      {"measurement": "Cmax", "setting": "[2]", "result": 973, "unit": "ng/mL"},
      {"measurement": "Tmax", "setting": "[2]", "result": 5, "unit": "min"},
      {"measurement": "clearance", "setting": "male, C57B6/J, mouse, plasma, mice, IV 2 mg/kg, read-out: CL (calc)", "result": 33, "unit": "mL/min/kg"},
      {"measurement": "Vd", "setting": "male, C57B6/J, mouse, plasma, mice, IV 2 mg/kg, read-out: VD (calc)", "result": 2.2, "unit": "L/kg"},
      {"measurement": "half-life", "setting": "[2]", "result": 47, "unit": "min"},
      {"measurement": "AUC", "setting": "[3]", "result": 100, "unit": "ng·h/mL"},
      {"measurement": "Cmax", "setting": "[3]", "result": 76, "unit": "ng/mL"},
      {"measurement": "Tmax", "setting": "[3]", "result": 30, "unit": "min"},
      {"measurement": "half-life", "setting": "[3]", "result": 281, "unit": "min"},
      {"measurement": "concentration at 5 min", "setting": "male, C57B6/J, mouse plasma, IV 2 mg/kg, 5 min, read-out: Average conc.", "result": 973, "unit": "ng/mL"},
      {"measurement": "concentration at 15 min", "setting": "[4]", "result": 622, "unit": "ng/mL"},
      {"measurement": "concentration at 30 min", "setting": "[4]", "result": 515, "unit": "ng/mL"},
      {"measurement": "concentration at 60 min", "setting": "[4]", "result": 337, "unit": "ng/mL"},
      {"measurement": "concentration at 120 min", "setting": "[4]", "result": 146, "unit": "ng/mL"},
      {"measurement": "concentration at 240 min", "setting": "[4]", "result": 23, "unit": "ng/mL"},
      {"measurement": "concentration at 0 min", "setting": "male, C57B6/J, mouse plasma, PO 2 mg/kg, 0 min, read-out: Average conc.", "result": 0, "unit": "ng/mL"},
      {"measurement": "concentration at 15 min", "setting": "[5]", "result": 42, "unit": "ng/mL"},
      {"measurement": "concentration at 30 min", "setting": "[5]", "result": 76, "unit": "ng/mL"},
      {"measurement": "concentration at 60 min", "setting": "[5]", "result": 30, "unit": "ng/mL"},
      {"measurement": "concentration at 120 min", "setting": "[5]", "result": 21, "unit": "ng/mL"},
      {"measurement": "concentration at 240 min", "setting": "[5]", "result": 7, "unit": "ng/mL"},
      {"measurement": "concentration at 480 min", "setting": "male, C57B6/J, mouse plasma, PO 2 mg/kg, 480 min, read-out: Average conc.", "result": 4, "unit": "ng/mL"},
      {"measurement": "F", "setting": "mice, 2 mg/kg", "result": 11, "unit": "%"},
      {"measurement": "CL (calc)", "setting": "mice, IP 20 mg/kg", "result": 27, "unit": "mL/min/kg"},
      {"measurement": "VD (calc)", "setting": "mice, IP 20 mg/kg", "result": 6.701, "unit": "L/kg"},
      {"measurement": "CL (calc)", "setting": "mice, PO 2 mg/kg", "result": 222, "unit": "mL/min/kg"},
      {"measurement": "VD (calc)", "setting": "mice, PO 2 mg/kg", "result": 90.009, "unit": "L/kg"}
    ]}
  ]
}
